Assay results taken from patent publication US20190364943A1, “NOVEL COMPOSITIONS FOR FLAVOR ENHANCEMENT” (International Flavors & Fragrances Inc., priority 2016, published 2019).

How the values were obtained:
sour taste [1] = assay: Paired comparison of sour taste, GMP solution vs guanosine solution (sensory panel); type: in vivo, human
Procedure: The effect of guanosine and GMP on sour taste was examined and compared. Respective test sample solutions of GMP and guanosine were prepared in the base solution (each of 5 and 100 ppb, respectively).
(§1) Sample pairs (a GMP solution and a guanosine solution) were presented in a blind and pseudorandom order to a sensory panel. The enhancement of sour taste was recorded based on the percentage of the panelists who ranked the sample sourer. Binomial statistical analysis was used to compare the enhancement of sour taste for each sample pair. Significance was at 95% Confidence Interval (p<0.05).

sour taste [2] = assay: Paired comparison of sour taste against control solution of citric acid 450 ppm (sensory panel); type: in vivo, human
Procedure: A control sample solution of citric acid in water (450 ppm) and a test sample solution of guanosine in the base solution (1.25 ppm) were prepared. Sample pairs of (i) a base solution and a control sample solution; and (ii) a test sample solution and a control sample solution were each presented in a blind and pseudorandom order to a sensory panel. The enhancement of sour taste was recorded based on the percentage of the panelists who ranked the sample sourer.

sweet taste = assay: Effect on sweet taste, intensity scale 0 to 10 (panelists); type: in vivo, human; settings: 20 ppm in sucrose in water (2.5% by weight); scale 0 to 10, control anchored as 5
Procedure: (§2) The effect of guanine and its nucleobase analog adenine on other basic tastes was examined and compared. The control solutions were prepared as follows:
(i) A sweet control solution of sucrose in water (2.5% by weight);
(§3) Respective test solutions of adenine and guanine were prepared in different control solutions (2 or 20 ppm).
(§4) The taste perception of each sample was evaluated by a group of panelists using an intensity scale of 0 to 10, where 0=none, 5=moderate, 10=extremely strong. Panelists were instructed to anchor the intensity of the control solutions as 5 on the scale. The intensity scores were analyzed using one-way ANOVA with Post Hoc LSD multiple comparisons. Average intensity scores are reported in the following:
(§5) The effect of guanosine and its corresponding nucleotide, guanosine 5′-monophosphate (GMP), on additional basic tastes was examined and compared. The control solutions of sweet, bitter, salty and umami tastes were prepared as above in Example II. Respective test solutions of guanosine and GMP were prepared in different control solutions (2 or 20 ppm).

[3] = Taste description of the compound alone in water; type: in vivo, human; settings: 1 ppm
bitter taste = assay: Effect on bitter taste, intensity scale 0 to 10 (panelists); type: in vivo, human; settings: 2 ppm in caffeine in water (0.05% by weight); scale 0 to 10, control anchored as 5
Procedure: as §2
(ii) A bitter control solution of caffeine in water (0.05% by weight);
as §3, §4, §5

umami taste = assay: Effect on umami taste, intensity scale 0 to 10 (panelists); type: in vivo, human; settings: 20 ppm in MSG in water (0.05% by weight); scale 0 to 10, control anchored as 5
Procedure: as §2
(iv) An umami control solution of monosodium glutamate (MSG) in water (0.05% by weight).
as §3, §4, §5

sour taste [4] = assay: Paired comparison of sour taste, test sample solution vs citric acid base solution (sensory panel); type: in vivo, human; settings: for Sour taste enhancement, in words (table footnote): 5 and 100 ppb in base solution (citric acid 400 ppm); for Result (sour taste vs base solution): paired comparison
Procedure: The enhancement of sour taste by guanine and guanosine was subsequently examined. A base solution of citric acid (HOC(COOH)(CH2COOH)2) in water (400 ppm) was prepared and used in the following examples of the present invention. Test sample solutions of guanine and guanosine were prepared in the base solution (each of 5 and 100 ppb, respectively).
as §1, with “base” for “GMP”, “test sample” for “guanosine”, “(p<0.05). The test results are as follows:” for “(p<0.05).”
The effect of botanical extract such as Chrysanthemum parthenium extract on sour taste was examined. A test sample solution of the extract in the base solution (15 ppm) was prepared.
Sensory evaluation was conducted using the paired comparison method. A base solution and a test sample solution, unidentifiable by using 3-digit codes, were presented in a blind and pseudorandom order to a sensory panel. The enhancement of sour taste was recorded based on the percentage of the panelists who ranked the sample sourer. The data were analyzed using binomial statistical analysis.

salty taste = assay: Effect on salty taste, intensity scale 0 to 10 (panelists); type: in vivo, human; settings: 20 ppm in sodium chloride in water (0.3% by weight); scale 0 to 10, control anchored as 5
Procedure: as §2
(iii) A salty control solution of sodium chloride in water (0.3% by weight); and
as §3, §4, §5

[5] = pH level of sample solutions; type: physicochemical
sour taste [6] = assay: Sour taste intensity score in citric acid base solution, scale 0 to 10 (panelists); type: in vivo, human; settings: scale 0 to 10, base anchored as 5
Procedure: The effect of adenine and guanine on sour taste was examined and compared. Respective test sample solutions of adenine and guanine were prepared in the base solution (each of 5 and 100 ppb, respectively).
as §4, with “The sour taste perception” for “The taste perception”, “of the base solution as 5” for “of the control solutions as 5”, “the following: […]” for “the following:”

[7] = guanosine 1.25 ppm in base solution (citric acid 400 ppm)
[8] = 5 ppb in base solution (citric acid in water, 400 ppm)
[9] = 100 ppb in base solution (citric acid in water, 400 ppm)
[10] = 5 ppb in base solution (citric acid 400 ppm)
[11] = 100 ppb in base solution (citric acid 400 ppm)

Row | pH Level ([5]; test solution: citric acid 400 ppm + guanosine 1.25 ppm (base alone pH 3.19)) | pH Level ([5]; control solution: citric acid in water, 450 ppm) | SMILES | Result (which solution of the pair tasted sourer) (sour taste [1]; 5 ppb each in base solution (citric acid 400 ppm)) | Result (which solution of the pair tasted sourer) (sour taste [1]; 100 ppb each in base solution (citric acid 400 ppm)) | Sour taste enhancement and pH, in words (sour taste [2]; [7]) | Sour taste enhancement compared with additional citric acid, in words (sour taste [2]; [7]) | Panelist Selection (%), ranked sourer (sour taste [2]; test (citric acid 400 ppm + guanosine 1.25 ppm) vs control (citric acid 450 ppm)) [%] | Sweet, average intensity score (sweet taste) | Sour taste of the compound itself [3] | Taste description [3] | Bitter, average intensity score (bitter taste) | Umami, average intensity score (umami taste) | Sour taste enhancement, in words (table footnote) (sour taste [4]) | Result (sour taste vs base solution) (sour taste [4]; [8]) | Result (sour taste vs base solution) (sour taste [4]; [9]) | Salty, average intensity score (salty taste) | Panelist Selection (%), ranked sourer (sour taste [2]; control (citric acid 450 ppm) vs base (citric acid 400 ppm)) [%] | Panelist Selection (%), ranked sourer (sour taste [2]; control (citric acid 450 ppm) vs test (citric acid 400 ppm + guanosine 1.25 ppm)) [%] | Intensity Score (sour taste) (sour taste [6]; [10]) | Intensity Score (sour taste) (sour taste [6]; [11])
1 | 3.20 |  | Nc1nc2c(ncn2[C@@H]2O[C@H](CO)[C@@H](O)[C@H]2O)c(=O)[nH]1 [Guanosine, guanosine] | Guanosine solution tasted sourer | Guanosine solution tasted sourer | enhanced sour taste without decreasing the pH level | greater than that was achieved by 50 ppm citric acid | 100 | 5.52 | Neither guanine nor guanosine possessed sour taste | somewhat astringent, mouth-drying and slightly bitter | 7.00 | 4.98 | *Guanine and guanosine provided intense and lasting sour taste enhancement. | Sourer than the base solution | Sourer than the base solution | 5.22 |  |  |  | 
2 |  | 3.17 | O=C(O)CC(O)(CC(=O)O)C(=O)O [citric acid, reference compound] |  |  |  |  |  |  |  |  |  |  |  |  |  |  | 100 | 0 |  | 
3 |  |  | Nc1ncnc2nc[nH]c12 [Adenine, adenine, reference compound] |  |  |  |  |  | 5.76 |  |  | 6.33 | 5.02 |  |  |  | 5.16 |  |  | 5.14 | 5.73
4 |  |  | Nc1nc2nc[nH]c2c(=O)[nH]1 [Guanine, guanine] |  |  |  |  |  | 4.80 | Neither guanine nor guanosine possessed sour taste | somewhat astringent, mouth-drying and mouth-coating | 6.50 | 4.82 | *Guanine and guanosine provided intense and lasting sour taste enhancement. | Sourer than the base solution | Sourer than the base solution | 5.06 |  |  | 6.44 | 7.08
5 |  |  | Nc1nc2c(ncn2[C@@H]2O[C@H](COP(=O)(O)O)[C@@H](O)[C@H]2O)c(=O)[nH]1 [GMP, guanosine 5′-monophosphate, reference compound] |  |  |  |  |  | 5.42 |  |  | 6.50 | 9.60 |  |  |  | 5.34 |  |  |  | 
